These results are taken from patent US9371336B2, “Compounds for treating spinal muscular atrophy” (PTC Therapeutics Inc., priority 2012, dated 2016).

The test system of one series is Smn protein. In words: Smn protein assay (HTRF) in cultured cells (SMA patient fibroblasts GM03813). The series is classed as cell-based, human. To be noted: 48 hours; for EC1.5x for Smn protein expression: SMA patient fibroblast cells (GM03813), HTRF, 7-point concentration data, concentration producing 1.5 times Smn protein vs DMSO vehicle control; for maximum fold (Fold) increase of Smn protein: SMA patient fibroblast cells, 7-point concentration curve, relative to vehicle control. Here is the method:
The Smn HTRF (homogeneous time resolved fluorescence) assay is used to quantify the level of Smn protein in SMA patient fibroblast cells treated with test compounds.
Cells are thawed and cultured in DMEM-10% FBS for 72 hours. Cells are trypsinized, counted and re-suspended to a concentration of 25,000 cells/mL in DMEM-10% FBS. The cell suspension is plated at 5,000 cells per well in a 96 well microtiter plate and incubated for 3 to 5 hours. […] Test compounds are serially diluted 3.16-fold in 100% DMSO to generate a 7-point concentration curve. 1 μL of test compound solution is transferred to cell-containing wells and cells are incubated for 48 hours in a cell culture incubator (37° C., 5% CO2, 100% relative humidity). Triplicate samples are set up for each test compound concentration. After 48 hours, the supernatant is removed from the wells and 25 μL of the RIPA lysis buffer, containing protease inhibitors, is added to the wells and incubated with shaking at room temperature for 1 hour. 25 μL of the diluent is added and then 35 μL of the resulting lysate is transferred to a 384-well plate, where each well contains 5 μL of the antibody solution (1:100 dilution of anti-SMN d2 and anti-SMN kryptate in SMN reconstitution buffer). The plate is centrifuged for 1 minute to bring the solution to the bottom of the wells, then incubated overnight at room temperature. Fluorescence for each well of the plate at 665 nm and 620 nm is measured on an EnVision multilabel plate reader (Perkin-Elmer).
The normalized fluorescence signal is calculated for each sample, Blank and vehicle control well by dividing the signal at 665 nm by the signal at 620 nm. Normalizing the signal accounts for possible fluorescence quenching due to the matrix effect of the lysate. The ΔF value (a measurement of Smn protein abundance as a percent value) for each sample well is calculated by subtracting the normalized average fluorescence for the Blank control wells from the normalized fluorescence for each sample well, then dividing this difference by the normalized average fluorescence for the Blank control wells and multiplying the resulting value by 100. The ΔF value for each sample well represents the Smn protein abundance from test compound-treated samples. The ΔF value for each sample well is divided by the ΔF value for the vehicle control wells to calculate the fold increase in Smn protein abundance relative to the vehicle control.
Background: TR-FRET usually uses a lanthanide donor and a delayed reading to cut background.

The test system of series [1] is SMN2 minigene mRNA (SMN2-A minigene construct). In words: SMN2 minigene mRNA splicing RT-qPCR assay in cultured cells. The series is classed as cell-based, human. Particulars: Homo sapiens, HEK293-H; HEK293H cells stably transfected with SMN2-A minigene, 24 hours, 7-point concentration data; concentration giving 1.5-fold SMN2 full length mRNA relative to vehicle-treated cells; read-out: EC1.5x for production of full length SMN2 mRNA. Here is the method: The reverse transcription-quantitative PCR-based (RT-qPCR) assay is used to quantify the level of the full length SMN2 minigene mRNA containing SMN2 exon 7 in a HEK293H cell line stably transfected with said minigene and treated with a test compound.
HEK293H cells stably transfected with the SMN2-A minigene construct described above (10,000 cells/well) are seeded in 200 μL of cell culture medium (DMEM plus 10% FBS, with 200 μg/mL hygromycin) in 96-well flat-bottom plates and the plate is immediately swirled to ensure proper dispersal of cells, forming an even monolayer of cells. Cells are allowed to attach for at least 4-6 hours. Test compounds are serially diluted 3.16-fold in 100% DMSO to generate a 7-point concentration curve. A solution of test compound (1 μL, 200× in DMSO) is added to each cell-containing well and the plate is incubated for 24 hours in a cell culture incubator (37° C., 5% CO2, 100% relative humidity). Two replicates are prepared for each test compound concentration. The cells are then lysed in Cells-To-Ct lysis buffer and the lysate is stored at −80° C.
Primer SMN Forward A (SEQ ID NO. 1) hybridizes to a nucleotide sequence in exon 7 (nucleotide 22 to nucleotide 40), primer SMN Reverse A (SEQ ID NO. 2) hybridizes to a nucleotide sequence in the coding sequence of Firefly luciferase, SMN Probe A (SEQ ID NO. 3) hybridizes to a nucleotide sequence in exon 7 (nucleotide 50 to nucleotide 54) and exon 8 (nucleotide 1 to nucleotide 21). The combination of these three oligonucleotides detects only SMN1 or SMN2 minigenes (RT-qPCR) and will not detect endogenous SMN1 or SMN2 genes.
The SMN forward and reverse primers are used at final concentrations of 0.4 μM. The SMN probe is used at a final concentration of 0.15 μM. The GAPDH primers are used at final concentrations of 0.2 μM and the probe at 0.15 μM.
The SMN2-minigene GAPDH mix (15 μL total volume) is prepared by combining 7.5 μL of 2×RT-PCR buffer, 0.4 μL of 25×RT-PCR enzyme mix, 0.75 μL of 20×GAPDH primer-probe mix, 4.0075 μL of water, 2 μL of 10-fold diluted cell lysate, 0.06 μL of 100 μM SMN forward primer, 0.06 μL of 100 μM SMN reverse primer, and 0.225 μL of 100 μM SMN probe.
PCR is carried out at the following temperatures for the indicated time: Step 1: 48° C. (15 min); Step 2: 95° C. (10 min); Step 3: 95° C. (15 sec); Step 4: 60° C. (1 min); then repeat Steps 3 and 4 for a total of 40 cycles.
Each reaction mixture contains both SMN2-A minigene and GAPDH primers/probe sets (multiplex design), allowing simultaneous measurement of the levels of two transcripts.
Two SMN spliced products are generated from the SMN2 minigene. The first spliced product containing exon 7, corresponding to SMN2 full length mRNA, is referred to herein using the term “SMN2 minigene FL.” The second spliced product lacking exon 7 is referred to herein using the term “SMN2 minigene Δ7.”
The increase of SMN2 minigene FL mRNA relative to that in cells treated with vehicle control is determined from real-time PCR data using a modified ΔΔCt method (as described in Livak and Schmittgen, Methods, 2001, 25:402-8). The amplification efficiency (E) is calculated from the slope of the amplification curve for SMN2 minigene FL and GAPDH individually. The abundances of SMN2 minigene FL and GAPDH are then calculated as (1+E)^−Ct, where Ct is the threshold value for each amplicon. The abundance of SMN2 minigene FL is normalized to GAPDH abundance. The normalized SMN2 minigene FL abundance from test compound-treated samples is then divided by normalized SMN2 minigene FL abundance from vehicle-treated cells to determine the level of SMN2 FL mRNA relative to vehicle control.
(In general: Quantitative PCR measures a nucleic acid by following its amplification.)

One may read the melting point as the temperature of the solid-liquid transition.

For the molecule `C[C@H]1CN(C)CCN1c1ccc2cc(-c3cn4cccc(F)c4n3)c(=O)oc2n1` [Cpd 68, 7-[(2S)-2,4-dimethylpiperazin-1-yl]-3-(8-fluoroimidazo[1,2-a]pyridin-2-yl)-2H-pyrano[2,3-b]pyridin-2-one], the melting point lay within 210 to 213 °C. Also, in the series with Smn protein, the “EC1.5x for Smn protein expression” value was “*** (an EC1.5× between >0.3 μM and ≦1 μM is indicated by three stars (***))”; the “maximum fold (Fold) increase of Smn protein” value (shortened to “maximum fold (Fold) increase”) was “**** (a fold increase between >1.5 and ≦1.65 is indicated by four stars (****))”. For the same molecule, the EC (1.5-fold) in series [1] was not above 0.1 µM.
Regarding `Cl.O=c1oc2nc(N3CCCNCC3)ccc2cc1-c1nc2ccccc2o1` [Cpd 52, 3-(1,3-benzoxazol-2-yl)-7-(1,4-diazepan-1-yl)-2H-pyrano[2,3-b]pyridin-2-one hydrochloride], the melting point lay within 243 to 245 °C. Further, the “maximum fold (Fold) increase” value in the series on Smn protein was “* (A maximum fold increase ≦1.2 is indicated by one star (*))”. The EC (1.5-fold) in series [1] lay in the range of 3 to 30 µM.
`Cl.O=c1oc2nc(N3CCCNCC3)ccc2cc1-c1nc2ccccc2s1` [Cpd 51, 3-(1,3-benzothiazol-2-yl)-7-(1,4-diazepan-1-yl)-2H-pyrano[2,3-b]pyridin-2-one hydrochloride] had a melting point of 284 to 286 °C. Besides, the “maximum fold (Fold) increase” value in the series with Smn protein is “** (a fold increase between >1.2 and ≦1.35 is indicated by two stars (**))”. Further, the EC (1.5-fold) in series [1] fell in the range of 0.3 to 1 µM.
Turning to `Cc1ccn2cc(-c3cc4ccc(N5CCN(C)CC5)nc4oc3=O)nc2c1` [Cpd 39, 3-(7-methylimidazo[1,2-a]pyridin-2-yl)-7-(4-methylpiperazin-1-yl)-2H-pyrano[2,3-b]pyridin-2-one], the melting point lay in the range of 264 to 268 °C. In addition, in the series with Smn protein, the “EC1.5x for Smn protein expression” value is “**** (an EC1.5×≦0.3 μM is indicated by four stars (****))”; the “maximum fold (Fold) increase” value was “**** (a fold increase between >1.5 and ≦1.65 is indicated by four stars (****))”. For the same molecule, the EC (1.5-fold) in series [1] is not above 0.1 µM.
In the case of `Cc1ccc2nc(-c3cc4ccc(N5CCN[C@@H](C)C5)nc4oc3=O)cn2c1` [Cpd 72, 3-(6-methylimidazo[1,2-a]pyridin-2-yl)-7-[(3S)-3-methylpiperazin-1-yl]-2H-pyrano[2,3-b]pyridin-2-one], in the series on Smn protein, the “EC1.5x for Smn protein expression” value is recorded as “**** (an EC1.5×≦0.3 μM is indicated by four stars (****))”; the “maximum fold (Fold) increase” value is “**** (a fold increase between >1.5 and ≦1.65 is indicated by four stars (****))”. For the same molecule, the EC (1.5-fold) in series [1] is not above 0.1 µM.
For the molecule `Cc1ccn2cc(-c3cc4cnc(N5CCNCC5)cc4oc3=O)nc2c1.Cl` [Cpd 40, 3-(7-methylimidazo[1,2-a]pyridin-2-yl)-7-(piperazin-1-yl)-2H-pyrano[3,2-c]pyridin-2-one hydrochloride], the “maximum fold (Fold) increase” value with Smn protein was “** (a fold increase between >1.2 and ≦1.35 is indicated by two stars (**))”. Also, in series [1], the EC (1.5-fold) was in the range of 0.3 to 1 µM.
Consider `CN1CCN(c2cc3oc(=O)c(-c4nc5ccccc5s4)cc3cn2)CC1` [Cpd 14, 3-(1,3-benzothiazol-2-yl)-7-(4-methylpiperazin-1-yl)-2H-pyrano[3,2-c]pyridin-2-one], for which the “maximum fold (Fold) increase” value in the series with Smn protein is listed as “* (A maximum fold increase ≦1.2 is indicated by one star (*))”. Besides, the EC (1.5-fold) in series [1] was 3 to 30 µM.
In the case of `C[C@H]1CNCCN1c1ccc2cc(-c3cn4cccc(F)c4n3)c(=O)oc2n1` [Cpd 63, 3-(8-fluoroimidazo[1,2-a]pyridin-2-yl)-7-[(2S)-2-methylpiperazin-1-yl]-2H-pyrano[2,3-b]pyridin-2-one], in the series on Smn protein, the “EC1.5x for Smn protein expression” value is reported as “**** (an EC1.5×≦0.3 μM is indicated by four stars (****))”; the “maximum fold (Fold) increase” value is “**** (a fold increase between >1.5 and ≦1.65 is indicated by four stars (****))”. Also, the EC (1.5-fold) in series [1] is not above 0.1 µM.
Consider `Cc1ccn2cc(-c3cc4ccc(N5CCN[C@@H](C)C5)nc4oc3=O)nc2c1` [Cpd 58, 3-(7-methylimidazo[1,2-a]pyridin-2-yl)-7-[(3S)-3-methylpiperazin-1-yl]-2H-pyrano[2,3-b]pyridin-2-one], for which, in the series with Smn protein, the “EC1.5x for Smn protein expression” value is on record as “**** (an EC1.5×≦0.3 μM is indicated by four stars (****))”; the “maximum fold (Fold) increase” value is “**** (a fold increase between >1.5 and ≦1.65 is indicated by four stars (****))”. In addition, the EC (1.5-fold) in series [1] is not above 0.1 µM.
On to `C[C@@H]1CN(c2ccc3cc(-c4cn5ccsc5n4)c(=O)oc3n2)CCN1.Cl` [Cpd 84, 3-(imidazo[2,1-b][1,3]thiazol-6-yl)-7-[(3R)-3-methylpiperazin-1-yl]-2H-pyrano[2,3-b]pyridin-2-one hydrochloride], for which, in the series on Smn protein, the “EC1.5x for Smn protein expression” value is “**** (an EC1.5×≦0.3 μM is indicated by four stars (****))” and the “maximum fold (Fold) increase” value is listed as “***** (a fold increase >1.65 is indicated by five stars (*****))”. Further, the EC (1.5-fold) in series [1] was not above 0.1 µM.
As for `CC(C)(C)OC(=O)N1CCN(c2cc3oc(=O)c(-c4nc5ccccc5s4)cc3cn2)CC1` [Cpd 7, tert-butyl 4-[3-(1,3-benzothiazol-2-yl)-2-oxo-2H-pyrano[3,2-c]pyridin-7-yl]piperazine-1-carboxylate], the “maximum fold (Fold) increase” value with Smn protein is “* (A maximum fold increase ≦1.2 is indicated by one star (*))”. The EC (1.5-fold) in series [1] was in the range of 3 to 30 µM.
`Cc1cn2cc(-c3cc4ccc(N5C[C@@H]6C[C@H]5CN6)nc4oc3=O)nc2c(C)n1` [Cpd 135]: in the series with Smn protein, the “EC1.5x for Smn protein expression” value is “*** (an EC1.5× between >0.3 μM and ≦1 μM is indicated by three stars (***))”; the “maximum fold (Fold) increase” value is “***** (a fold increase >1.65 is indicated by five stars (*****))”. In series [1], the EC (1.5-fold) was not above 0.1 µM.
